Read-outs that look alike come from different tables or passages of the source.
Assays:
[1] = Stability of coelenterazines in reporter reagent buffer (T90); settings: time for luminescent signal to decay by 10% at 22° C. in reporter reagent buffer; read with IV lysate
[2] = system: red click beetle luciferase and OgLuc variant 9B8 opt; assay: Multiplexing with red click beetle luciferase, modified DUAL-GLO assay; assay type: biochemical; settings: first step, red click beetle luciferase signal
Protocol: (§1) A. Lysates of E. coli expressing the variant 9B8 opt were prepared as previously described in Example 27 and diluted 1000-fold in DMEM without phenol red+0.1% PRIONEX®. Luminescence from a sample containing 6.3 μg/mL of purified red click beetle luciferase and E. coli lysate expressing the variant 9B8 opt was detected using a modified DUAL-GLO® Luciferase Assay System (Promega Corp.). DUAL-GLO® STOP&GLO® Reagent containing 20 μM coelenterazine-h and DUAL-GLO® STOP&GLO® Reagent containing 20 μM PBI 3939 were used, according to the manufacturer's protocol, to detect the red click beetle luciferase and OgLuc variant 9B8 luciferase from a single sample. Three replicates were performed.
(§2) Luminescence was detected on a Turner MODULUS™ luminometer. […] The standard deviation (“+/−”) and coefficient of variance (“CV”) are also shown. A “no coelenterazine” control was performed to illustrate the amount of quenching of the red click beetle signal by the DUAL-GLO® STOP&GLO® Reagent of the DUAL-GLO® Luciferase Assay System in the absence of coelenterazine. The “no coelenterazine” control yielded a 349-fold quench.

[3] = target: T1, red click beetle luciferase and OgLuc variant 9B8 opt (Oplophorus gracilirostris, UniProt Q9GV45, A31E/A60K/A81I/F95Y/I117V/L99Q/M102K/N193R/P142E/Q151K/Q38R/Q45L/V71I/Y165I); assay: as above; assay type: biochemical; settings: 9B8 opt, STOP&GLO Reagent with 20 μM of the substrate
T1 construct: The IV-based variants were generated in a pF4Ag vector background without HT7; made in house; host or cells: E. coli (crude lysate, diluted 1000-fold)
T1 sequence (Q9GV45 other isoform, or with tags, fused parts or gaps with the stated changes): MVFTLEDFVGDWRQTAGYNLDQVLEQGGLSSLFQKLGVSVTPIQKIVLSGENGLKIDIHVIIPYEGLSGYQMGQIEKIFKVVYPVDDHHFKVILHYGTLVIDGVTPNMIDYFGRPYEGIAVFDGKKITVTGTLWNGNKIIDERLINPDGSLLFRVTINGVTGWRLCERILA
Protocol: as §1, §2

OgLuc variant 9B8 = target: T2, OgLuc variant 9B8 (Oplophorus gracilirostris, UniProt Q9GV45, A31E/A60K/A81I/F95Y/I117V/L99Q/M102K/N193R/P142E/Q151K/Q38R/Q45L/V71I/Y165I); assay: LOPAC library inhibition screen; assay type: biochemical; settings: preliminary LOPAC screen, 9B8, 20 μM substrate
T2 construct: The IV-based variants were generated in a pF4Ag vector background without HT7; made in house; host or cells: E. coli (crude lysate)
T2 sequence (Q9GV45 other isoform, or with tags, fused parts or gaps with the stated changes): as above
Protocol: To determine the susceptibility of the OgLuc variants to off-target interactions, the activity of the 9B8 and L27V variants was screened against a LOPAC (library of pharmacologically active compounds) library. A LOPAC 1280 library (Sigma) was prepared by diluting the compounds to 1 mM in DMSO. On the day of the assay, the compounds were diluted to 20 μM in 1×PBS, and 10 μL transferred to a 96-well, white plate. To each well, 10 μL of purified 9B8, L27V or firefly luciferase (Luc2) enzyme diluted 10^−4 in Glo Lysis Buffer (Promega Corp.) was added and incubated at room temperature for 2 min. […] For assaying firefly luciferase, the BRIGHT-GLO™ Assay reagent (Promega Corp.) was used according to the manufacturer's protocol. As a negative control, 8 wells of each plate contained 1×PBS+2% glycerol. As a positive control, 8 wells of each plate contained 2 mM Suramin in 2% DMSO or 2 mM luciferase inhibitor 1 in 2% DMSO (Calbiochem).

HEK293 cells [4] = assay: Live cell luminescence with PBI-3939; assay type: cell-based, human; settings: cells in culture, 60 μM
Protocol: A. The use of OgLuc variants and PBI-3939 in live cells was examined HEK293 cells were plated in 96-well plates at 15,000 cells/well and grown overnight at 37° C. The following day, the cells were transiently transfected using TRANSIT®-LT1 in 3 replicates with 100 ng of hRL or 9B8 opt in pF4Ag and grown overnight at 37° C. The following day the growth media was removed and replaced with media containing 60 μM VIVIREN™ Live Cell Substrate (Promega Corp.), 60 μM ENDUREN™ Live Cell Substrate (Promega Corp.), or 60 μM PBI-3939 for both hRL and 9B8 opt transfected cells. Non-transfected cells were used as background control. The plate was incubated at 37° C. during the course of one day and periodically measured on a TECAN® GENIOS™ Pro luminometer, i.e., 11 times over the course of 24 hrs.

HEK293 cells [5] = system: HEK293 cells

## O=c1c(Cc2ccco2)nc2c(Cc3ccccc3)[nH]c(-c3ccc(O)cc3)cn1-2 [PBI-3945]
[1]
  Stability (pH 8) (T90 in hrs): 3.3 hrs

## O=c1c(Cc2cccs2)nc2c(Cc3ccccc3)[nH]c(-c3ccccc3)cn1-2 [PBI-3889, 8-benzyl-6-phenyl-2-(thiophen-2-ylmethyl)imidazo[1,2-a]pyrazin-3(7H)-one]
other
  Stability (pH 8) (T90 in hrs): 2.9 hrs

## coelenterazine-h [reference compound]
[1]
  Stability (pH 8) (T90 in hrs): 2.1 hrs
[2]
  click beetle (average luminescence): 5,082,100
[3]
  Ogluc (average luminescence): 921,440

## Cc1[nH]c(-c2ccccc2)cn2c(=O)c(Cc3ccc(O)cc3)nc1-2 [PBI-3896, 2-(4-hydroxybenzyl)-8-methyl-6-phenylimidazo[1,2-a]pyrazin-3(7H)-one]
other
  Stability (pH 8) (T90 in hrs): 2.8 hrs

## Cc1ccc(C(=O)Nc2ccc(S(=O)(=O)O)c3cc(S(=O)(=O)O)cc(S(=O)(=O)O)c23)cc1NC(=O)c1cccc(NC(=O)Nc2cccc(C(=O)Nc3cc(C(=O)Nc4ccc(S(=O)(=O)O)c5cc(S(=O)(=O)O)cc(S(=O)(=O)O)c45)ccc3C)c2)c1 [Suramin]
OgLuc variant 9B8
  inhibition of OgLuc: inhibitor of OgLuc

## O=c1c(Cc2ccco2)nc2c(Cc3ccccc3)[nH]c(-c3ccccc3)cn1-2 [PBI-3939, 8-benzyl-2-(furan-2-ylmethyl)-6-phenylimidazo[1,2-a]pyrazin-3(7H)-one]
other
  Stability (pH 8) (T90 in hrs): 4.1 hrs
HEK293 cells [4]
  cell permeability: can permeate cells in culture
HEK293 cells [5]
  biocompatibility in terms of cell viability: comparable biocompatibility to native coelenterazine
[2]
  click beetle (average luminescence): 5,078,547
[3]
  Ogluc (average luminescence): 2,996,940

## O=c1c(Cc2cccs2)nc2c(Cc3ccccc3)[nH]c(-c3ccc(O)cc3)cn1-2 [PBI-4002]
[1]
  Stability (pH 8) (T90 in hrs): 3.5 hrs

## O=c1c(Cc2ccccc2)nc2c(Cc3ccccc3)[nH]c(-c3ccccc3)cn1-2 [coelenterazine-hh, bisdeoxycoelenterazine, reference compound]
[1]
  Stability (pH 8) (T90 in hrs): 2.0 hrs

## Oc1ccc(Cc2nc3c(Cc4ccccc4)nc(-c4ccc(O)cc4)cn3c2O)cc1 [native coelenterazine, coelenterazine]
other
  Stability (pH 8) (T90 in hrs): 1.7 hrs

From patent publication US9951373B2, “Oplophorus-derived luciferases, novel coelenterazine substrates, and methods of use” (Promega Corporation, priority 2010, dated 2018)
